Measurements from US20180185408A1, “ANTIFUNGAL NYLON-3 POLYMERS AND COMBINATION THERAPY USING THEM TO TREAT FUNGAL INFECTIONS” (priority 2016, published 2018).

Test system: human red blood cells (hRBCs)
Test: Hemolysis assay
Settings: 1 hour

C[C@@H]1[C@H](O)[C@@H](C)/C=C/C=C/C=C/C=C/C=C/C=C/C=C/[C@H](O[C@@H]2O[C@H](C)[C@@H](O)[C@H](N)[C@@H]2O)C[C@@H]2O[C@](O)(C[C@@H](O)C[C@@H](O)[C@H](O)CC[C@@H](O)C[C@@H](O)CC(=O)O[C@H]1C)C[C@H](O)[C@H]2C(=O)O [AMB, amphotericin B]
concentration causing 10% hemolysis (HC10): 27 µM | concentration causing 50% lysis of hRBCs (HC50): 54 µM
